According to ChEMBL document CHEMBL4041544, “Discovery of new selective glucocorticoid receptor agonist leads” (Bioorg Med Chem Lett, 2017):
In brackets after ≈: the same amount, converted by molar mass.

Legend:
Glucocorticoid receptor [1] = molecular target: T1, Glucocorticoid receptor (Homo sapiens, UniProt P04150); test: Transrepression activity at glucocorticoid receptorin human HeLa cells assessed as inhibition of TPA-induced collagenase promoter activity by luciferase reporter gene assay; format: cell-based
T1 sequence (P04150 whole entry): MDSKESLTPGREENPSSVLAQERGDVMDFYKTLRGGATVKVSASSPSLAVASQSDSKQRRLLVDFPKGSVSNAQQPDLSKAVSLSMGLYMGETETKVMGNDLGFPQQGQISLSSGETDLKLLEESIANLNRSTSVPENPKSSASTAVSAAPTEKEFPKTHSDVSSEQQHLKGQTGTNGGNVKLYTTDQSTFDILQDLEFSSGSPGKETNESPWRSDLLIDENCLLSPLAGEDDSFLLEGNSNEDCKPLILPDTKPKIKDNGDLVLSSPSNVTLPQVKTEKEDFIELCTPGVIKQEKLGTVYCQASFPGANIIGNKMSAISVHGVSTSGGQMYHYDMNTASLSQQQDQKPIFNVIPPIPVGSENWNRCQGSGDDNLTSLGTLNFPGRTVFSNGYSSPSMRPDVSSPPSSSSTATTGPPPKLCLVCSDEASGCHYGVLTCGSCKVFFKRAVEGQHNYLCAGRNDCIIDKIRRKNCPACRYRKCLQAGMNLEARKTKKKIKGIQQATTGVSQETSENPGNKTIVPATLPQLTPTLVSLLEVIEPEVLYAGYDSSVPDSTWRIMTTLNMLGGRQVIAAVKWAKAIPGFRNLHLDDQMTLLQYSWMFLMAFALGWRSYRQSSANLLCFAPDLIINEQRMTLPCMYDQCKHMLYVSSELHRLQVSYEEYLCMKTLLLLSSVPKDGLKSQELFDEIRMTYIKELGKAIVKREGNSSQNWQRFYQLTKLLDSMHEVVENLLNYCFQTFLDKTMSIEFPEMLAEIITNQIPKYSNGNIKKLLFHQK

[2] = Oral bioavailability in rat at 10 mg/kg dosed as microcrystalline suspension; format: ADME, organism-based; settings: in vivo
Glucocorticoid receptor [3] = molecular target: T1, Glucocorticoid receptor; test: Transrepression activity at glucocorticoid receptor in human THP1 cells assessed as receptor-mediated anti-inflammatory activity by measuring inhibition of LPS-induced IL-8 production; format: cell-based
[4] = Lipophilicity, log P of the compound; format: physicochemical; settings: octanol/water
Glucocorticoid receptor [5] = molecular target: T1, Glucocorticoid receptor; test: Transactivation activity at glucocorticoid receptor in human HeLa cells assessed as induction of MMTV promoter activity by luciferase reporter gene assay; format: cell-based
Progesterone receptor = molecular target: T2, Progesterone receptor (Homo sapiens, UniProt P06401); test: Binding affinity to recombinant human progesterone receptor expressed in baculovirus infected sf9 cells
T2 sequence (P06401 whole entry): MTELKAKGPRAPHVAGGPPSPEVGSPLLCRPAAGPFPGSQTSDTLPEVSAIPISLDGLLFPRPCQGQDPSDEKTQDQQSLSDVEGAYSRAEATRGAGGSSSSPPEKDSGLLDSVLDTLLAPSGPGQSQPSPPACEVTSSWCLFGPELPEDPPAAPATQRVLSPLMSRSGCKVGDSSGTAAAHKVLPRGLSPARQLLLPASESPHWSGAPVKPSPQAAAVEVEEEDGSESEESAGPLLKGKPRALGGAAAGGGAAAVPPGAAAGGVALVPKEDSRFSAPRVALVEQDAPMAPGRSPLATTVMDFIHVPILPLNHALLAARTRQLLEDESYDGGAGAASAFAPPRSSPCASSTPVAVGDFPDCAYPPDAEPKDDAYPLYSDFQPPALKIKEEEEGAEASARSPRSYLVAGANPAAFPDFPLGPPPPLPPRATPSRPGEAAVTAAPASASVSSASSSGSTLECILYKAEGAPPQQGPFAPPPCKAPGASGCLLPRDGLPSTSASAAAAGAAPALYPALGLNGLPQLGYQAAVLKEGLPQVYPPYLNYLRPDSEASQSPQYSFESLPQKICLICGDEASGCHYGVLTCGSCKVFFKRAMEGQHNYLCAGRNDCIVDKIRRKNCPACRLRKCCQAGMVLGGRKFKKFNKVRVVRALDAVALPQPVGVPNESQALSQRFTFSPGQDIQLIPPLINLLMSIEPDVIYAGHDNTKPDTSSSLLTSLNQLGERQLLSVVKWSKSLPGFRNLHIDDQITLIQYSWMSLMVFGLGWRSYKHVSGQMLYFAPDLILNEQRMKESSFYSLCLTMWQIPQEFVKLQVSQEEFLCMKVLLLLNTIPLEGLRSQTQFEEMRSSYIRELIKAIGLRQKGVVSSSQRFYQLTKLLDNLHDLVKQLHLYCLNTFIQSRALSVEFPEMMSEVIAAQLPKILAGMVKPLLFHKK

[6] = Blood clearance in rat at 1.25 mg/kg, iv administered as bolus dose; format: ADME, organism-based; settings: whole blood
[7] = Stability in human liver microsomes assessed as drug recovery after 30 mins; format: ADME, microsome; settings: read-out: Drug recovery
[8] = Volume of distribution at steady state in rat at 1.25 mg/kg, iv administered as bolus dose; format: ADME, organism-based; settings: in vivo, read-out: Vdss
Rattus norvegicus [9] = test: Anti-inflammatory activity in Wistar rat assessed as inhibition of croton oil-induced ear edema at 30 mg/kg, po relative to control; format: functional
Glucocorticoid receptor [10] = molecular target: T1, Glucocorticoid receptor; test: Binding affinity to recombinant human glucocorticoid receptor expressed in baculovirus infected sf9 cells
Rattus norvegicus [11] = test: Anti-inflammatory activity in po dosed Brown Norway rat assessed as inhibition of TMA-induced ear edema; format: functional
Androgen receptor = molecular target: T3, Androgen receptor (Homo sapiens, UniProt P10275); test: Binding affinity to recombinant human androgen receptor expressed in baculovirus infected sf9 cells
T3 sequence (P10275 whole entry): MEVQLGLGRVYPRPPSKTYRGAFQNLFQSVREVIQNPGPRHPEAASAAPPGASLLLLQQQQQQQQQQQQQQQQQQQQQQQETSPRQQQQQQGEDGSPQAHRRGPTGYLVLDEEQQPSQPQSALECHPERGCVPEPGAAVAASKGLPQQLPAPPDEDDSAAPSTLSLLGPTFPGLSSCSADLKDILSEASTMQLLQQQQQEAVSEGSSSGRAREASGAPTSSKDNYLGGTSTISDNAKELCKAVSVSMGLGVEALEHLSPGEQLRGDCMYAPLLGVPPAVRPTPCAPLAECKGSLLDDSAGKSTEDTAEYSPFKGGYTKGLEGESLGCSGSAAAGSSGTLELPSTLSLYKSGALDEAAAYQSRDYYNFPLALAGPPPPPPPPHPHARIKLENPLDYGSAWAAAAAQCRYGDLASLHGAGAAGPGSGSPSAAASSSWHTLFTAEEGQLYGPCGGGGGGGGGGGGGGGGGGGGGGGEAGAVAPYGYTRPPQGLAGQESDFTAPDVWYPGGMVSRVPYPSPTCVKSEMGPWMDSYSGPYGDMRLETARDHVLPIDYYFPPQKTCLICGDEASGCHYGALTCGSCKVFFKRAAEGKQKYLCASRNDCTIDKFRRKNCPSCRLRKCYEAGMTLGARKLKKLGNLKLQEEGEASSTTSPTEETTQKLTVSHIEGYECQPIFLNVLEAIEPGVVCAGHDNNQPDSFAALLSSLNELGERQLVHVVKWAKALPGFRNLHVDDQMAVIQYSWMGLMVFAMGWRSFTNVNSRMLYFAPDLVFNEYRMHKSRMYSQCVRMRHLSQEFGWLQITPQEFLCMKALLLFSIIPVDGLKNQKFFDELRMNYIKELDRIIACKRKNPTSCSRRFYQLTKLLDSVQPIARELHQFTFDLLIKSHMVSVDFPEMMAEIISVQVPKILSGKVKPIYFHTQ

Rattus norvegicus [12] = test: Anti-inflammatory activity in po dosed Wistar rat assessed as inhibition of croton oil-induced ear edema; format: functional
[13] = molecular target: T4, Mineralocorticoid receptor (Homo sapiens, UniProt P08235); test: Binding affinity to recombinant human mineralocorticoid receptor expressed in baculovirus infected sf9 cells
T4 sequence (P08235 whole entry): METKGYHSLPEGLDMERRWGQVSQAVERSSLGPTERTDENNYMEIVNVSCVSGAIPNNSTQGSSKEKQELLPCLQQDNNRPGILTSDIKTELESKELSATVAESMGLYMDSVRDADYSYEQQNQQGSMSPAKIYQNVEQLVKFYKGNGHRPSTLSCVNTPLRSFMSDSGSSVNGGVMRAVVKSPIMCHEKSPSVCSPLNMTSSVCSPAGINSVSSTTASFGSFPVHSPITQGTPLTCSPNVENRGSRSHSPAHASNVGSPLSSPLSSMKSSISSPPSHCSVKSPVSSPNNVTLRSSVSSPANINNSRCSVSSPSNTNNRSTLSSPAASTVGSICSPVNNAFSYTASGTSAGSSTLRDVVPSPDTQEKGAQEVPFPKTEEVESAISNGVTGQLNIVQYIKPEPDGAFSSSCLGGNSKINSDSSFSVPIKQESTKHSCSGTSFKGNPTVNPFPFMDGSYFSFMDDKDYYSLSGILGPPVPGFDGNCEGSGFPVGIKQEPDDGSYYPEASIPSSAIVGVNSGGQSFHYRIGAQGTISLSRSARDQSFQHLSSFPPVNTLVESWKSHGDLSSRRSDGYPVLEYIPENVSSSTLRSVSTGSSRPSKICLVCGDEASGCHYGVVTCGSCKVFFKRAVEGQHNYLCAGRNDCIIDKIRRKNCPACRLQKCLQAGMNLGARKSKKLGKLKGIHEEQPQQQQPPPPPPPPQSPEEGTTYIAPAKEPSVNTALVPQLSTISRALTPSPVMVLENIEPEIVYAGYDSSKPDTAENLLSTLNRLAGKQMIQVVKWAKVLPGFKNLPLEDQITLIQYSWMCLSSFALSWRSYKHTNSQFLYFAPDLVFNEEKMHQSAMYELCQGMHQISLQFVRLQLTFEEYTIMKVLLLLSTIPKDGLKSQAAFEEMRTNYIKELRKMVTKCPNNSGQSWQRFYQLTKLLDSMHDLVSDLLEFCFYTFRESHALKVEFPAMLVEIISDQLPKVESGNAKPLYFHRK

[14] = Thermodynamic solubility of the compound in 0.1 M phosphate buffer at pH 7.4 at 25 degC; format: physicochemical; settings: read-out: Therm_solubility
[15] = Half life in rat at 1.25 mg/kg, iv administered as bolus dose; format: ADME, organism-based; settings: in vivo
Rattus norvegicus [16] = test: Anti-inflammatory activity in Brown Norway rat assessed as inhibition of TMA-induced ear edema at 30 mg/kg, po relative to control; format: functional

SMILES	IC50 (Glucocorticoid receptor [1])	bioavailability [2]	IC50 (Glucocorticoid receptor [3])	logP [4]	pEC50 (Glucocorticoid receptor [5])	IC50 (Progesterone receptor)	clearance [6]	remaining at 0.5 h [7]	Vd [8]	IC50 (Glucocorticoid receptor [10])	IC50 (Androgen receptor)	IC50 [13]	solubility thermodynamic [14]	half-life [15]	Imax (Rattus norvegicus [9])	ED50 (Rattus norvegicus [11])	ED50 (Rattus norvegicus [12])	Imax (Rattus norvegicus [16])
Cc1ccc2c(N[C@H]3c4ccc(F)c(O)c4[C@H](C)C[C@]3(O)C(F)(F)F)cccc2n1	20 nM	–	20 nM	–	7.4	> 1000 nM	–	–	–	15.8 nM	> 1000 nM	> 1000 nM	–	–	–	–	–	–
C[C@@H]1C[C@H]2[C@@H]3CCC4=CC(=O)C=C[C@]4(C)[C@@]3(F)[C@@H](O)C[C@]2(C)[C@@]1(O)C(=O)CO [DEXAMETHASONE]	–	–	–	–	–	> 1000 nM	–	–	–	–	–	–	–	–	–	–	–	–
C[C@]12C=CC(=O)C=C1CC[C@@H]1[C@@H]2[C@@H](O)C[C@@]2(C)[C@H]1CC[C@]2(O)C(=O)CO [PREDNISOLONE]	–	–	–	–	–	–	–	–	–	–	–	–	–	–	83%	6.7 mg/kg	15.7 mg/kg	107%

Second part, led by results:

IC50 (Glucocorticoid receptor [1])	bioavailability [2]	IC50 (Glucocorticoid receptor [3])	logP [4]	pEC50 (Glucocorticoid receptor [5])	IC50 (Progesterone receptor)	clearance [6]	remaining at 0.5 h [7]	Vd [8]	IC50 (Glucocorticoid receptor [10])	IC50 (Androgen receptor)	IC50 [13]	solubility thermodynamic [14]	half-life [15]	SMILES	Imax (Rattus norvegicus [9])	ED50 (Rattus norvegicus [11])	ED50 (Rattus norvegicus [12])	Imax (Rattus norvegicus [16])
6.31 nM	59%	6.31 nM	4	7.6	> 1000 nM	26.7 mL/min/kg	98%	11 L/kg	126 nM	> 1000 nM	> 1000 nM	26 µg/mL (≈ 57.3 µM)	5.8 h	CC[C@@H]1C[C@](O)(C(F)(F)F)[C@@H](Nc2cc(F)cc3nc(C)ncc23)c2ccc(F)c(O)c21	124%	1.3 mg/kg	1.4 mg/kg	55%
15.8 nM	–	15.8 nM	–	7.6	794 nM	–	–	–	15.8 nM	794 nM	> 1000 nM	–	–	CC1(C)C[C@](O)(C(F)(F)F)[C@@H](Nc2cccc3[nH]c(=O)ccc23)c2ccc(F)c(O)c21	–	–	–	–
20 nM	–	20 nM	–	6.8	631 nM	–	–	–	63.1 nM	> 1000 nM	> 1000 nM	–	–	C=C(C)C[C@@](O)([C@@H](Nc1cccc2c(=O)[nH]ccc12)c1cc(Br)ccc1O)C(F)(F)F (racemic)	–	–	–	–
6.31 nM	–	6.31 nM	–	7.9	794 nM	–	48%	–	20 nM	316 nM	> 1000 nM	–	–	CC1(C)C[C@](O)(C(F)(F)F)[C@@H](Nc2cccc3c(=O)[nH]ccc23)c2ccc(F)c(O)c21 (racemic)	–	–	–	–
